Source: ChEMBL document CHEMBL1201862, “PubChem BioAssay data set” (2004)
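Step 1: Grow cells in 96-well plates. Step 2: Expose to compound for 48 hours at 5 concentrations. Step 3: Interpolate endpoints linearly; if unreached, use highest concentration. GI50 = concentration required for 50% inhibition of growth.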 Calls of active or inactive are those of the source. Cut-off read from the data, not from the text of the source: active = GI50 up to about 1.1 µM and inactive = higher.

Columns and labels:
Assay in all cases: NCI tumour cell line growth inhibition, 48 h
SNB-19 = system: SNB-19
MDA-MB-231 = system: MDA-MB-231
SF-539 = system: SF-539
DU-145 = system: DU-145
OVCAR-4 = system: OVCAR-4
SK-OV-3 = system: SK-OV-3
COLO 205 = system: COLO 205
SK-MEL-28 = system: SK-MEL-28
KM12 = system: KM12
NCI-H23 = system: NCI-H23
MDA-MB-435 = system: MDA-MB-435
OVCAR-8 = system: OVCAR-8
U-251 = system: U-251
RPMI-8226 = system: RPMI-8226
ACHN = system: ACHN
A498 = system: A498
K562 = system: K562
MOLT-4 = system: MOLT-4
786-0 = system: 786-0
MDA-N = system: MDA-N

Structure (SMILES) | GI50 (SNB-19) | GI50 (MDA-MB-231) | GI50 (SF-539) | GI50 (DU-145) | GI50 (OVCAR-4) | GI50 (SK-OV-3) | GI50 (COLO 205) | GI50 (SK-MEL-28) | GI50 (KM12) | GI50 (NCI-H23) | GI50 (MDA-MB-435) | GI50 (OVCAR-8) | GI50 (U-251) | GI50 (RPMI-8226) | GI50 (ACHN) | GI50 (A498) | GI50 (K562) | GI50 (MOLT-4) | GI50 (786-0) | GI50 (MDA-N)
O=C(O)c1cc(N(Cc2ccccc2O)Cc2cc(O)ccc2O)ccc1O [LAVENDUSTIN A] | > 100 µM (inactive) | > 100 µM (inactive) | > 100 µM (inactive) | > 100 µM (inactive) | > 100 µM (inactive) | > 100 µM (inactive) | > 100 µM (inactive) | > 100 µM (inactive) | > 100 µM (inactive) | > 100 µM (inactive) | > 100 µM (inactive) | > 100 µM (inactive) | > 100 µM (inactive) | > 100 µM (inactive) | > 100 µM (inactive) | > 100 µM (inactive) | > 100 µM (inactive) | > 100 µM (inactive) | > 100 µM (inactive) | > 100 µM (inactive)
C=C1CCCC(C)(C)C1CCC1(C)CCC(C(C)C(=O)OC)OO1 (stereo not given) | 9.08 µM (inactive) | 9.08 µM (inactive) | 6.3 µM (inactive) | 4.35 µM (inactive) | 4.9 µM (inactive) | 4.4 µM (inactive) | 4.92 µM (inactive) | 20.6 µM (inactive) | 0.948 µM (active) | 3.78 µM (inactive) | 4.05 µM (inactive) | 6.62 µM (inactive) | 2.94 µM (inactive) | 5.56 µM (inactive) | 1.27 µM (inactive) | 5.87 µM (inactive) | 8.89 µM (inactive) | 8.11 µM (inactive) | 0.36 µM (active) | 3.73 µM (inactive)
Cc1cc(C2(c3cc(C)c(O)c4ncccc34)OC(=O)c3ccccc32)c2cccnc2c1O | 0.0174 µM (active) | 0.0692 µM (active) | 0.0376 µM (active) | 0.0659 µM (active) | 0.067 µM (active) | 4.52 µM (inactive) | 0.67 µM (active) | > 10 µM (inactive) | 0.0668 µM (active) | 0.0187 µM (active) | 0.0682 µM (active) | 0.00615 µM (active) | 0.0288 µM (active) | 0.012 µM (active) | 0.00662 µM (active) | 1.47 µM (inactive) | 0.0776 µM (active) | 0.522 µM (active) | 0.0178 µM (active) | 0.00925 µM (active)
O=c1[nH]cc(/N=C/c2cc(Cl)cc(Cl)c2O)c(=O)[nH]1 | 32.8 µM (inactive) | 48.3 µM (inactive) | 24.1 µM (inactive) | 23 µM (inactive) | 21.3 µM (inactive) | 24.7 µM (inactive) | 24.8 µM (inactive) | 22.9 µM (inactive) | 24.2 µM (inactive) | 24.6 µM (inactive) | 23.5 µM (inactive) | 43.1 µM (inactive) | 32.7 µM (inactive) | 22.1 µM (inactive) | 36.3 µM (inactive) | > 100 µM (inactive) | 27.8 µM (inactive) | 21.9 µM (inactive) | 20.7 µM (inactive) | 29.2 µM (inactive)
